Measured values taken from BindingDB's records for doi:10.1021/jm051104t (University of Minnesota, 2006).

Assay: Cytotoxicity against HEK293 cells transfected with recombinant AOR by MTT assay

Compound	IC50 [nM]
CC1=CC2=C(C)C3(CC3)[C@](C)(O)C(=O)C2=C1	5000
CC1=C(CO)C2=C(C)C3(CC3)[C@](C)(O)C(=O)C2=C1	1420
CC1=CC2=C(C)C3(CC3)[C@@](C)(O)C(=O)C2=C1 [ACYLFULVENE]	95
CC1=C(CO)C2=C(C)C3(CC3)[C@@](C)(O)C(=O)C2=C1 [IROFULVEN]	55
